The subject of test [1] is mice. As to the kind of experiment: Antagonism of selective opioid agonist-induced antinociception, intrathecal, modified tail flick assay. It is filed as in vivo, mouse. Particulars: for norBNI antagonism of antinociception with co-administered dynorphin-A antiserum (DAS): FIG. 7, FIG. 8.
For test [2], the system named is guinea pig ileum preparation. As to the kind of experiment: Guinea pig ileal longitudinal muscle preparation, electrically stimulated contraction. As to conditions: guinea pig ilium preparation.
The test system of test [3] is mouse vas deferens preparation. Briefly: Mouse vas deferens preparation (MVD). As for the experimental part: Mouse vasa deferentia are prepared using the method of Henderson, et al (see Henderson, G.; Hughes, J.; Kosterlitz, H. W., Br. J. Pharmacol. 1972, 46, 764-766). Male ICR mice (30-35 g) are killed by cervical dislocation. Both vasa deferentia are removed and mounted between platinum ring electrodes and placed in a 10-mL organ bath containing a modified Kreb's solution (NaCl, 118 mM; KCl, 4.70 mM;CaCl2, 2.52 mM; KH2PO4, 1.19 mM; NaHCO3, 25 mM; glucose, 11.48 mM; pH =7.4) at 37° C. The bath is continuously bubbled with a 95% O2, 5% CO2, gas mixture. One end of the vas deferens is attached to the electrode assembly, the other is attached to a Statham-Gould UC-3 isometric force transducer using 6.0 surgical silk. The vasa deferentia are stimulated transmurally with a Grass S44 stimulator (square waves of supramaximal voltage (70 V) for 1 msec and a frequency of 0.1 Hz). Resting tension is 200 mg. Vasa deferentia are stimulated continuously for 20 minutes before each experiment to allow equilibration to occur. The tissues are washed every 10 minutes during this period.

The subject of test [4] is mice. Briefly: Tail-flick analgesia after intrathecal or intraventricular administration. The format is in vivo, mouse. From the text: In the tail-flick assay which was modified for mice, the animal responses are made quantal by establishing and end point at the mean peak effect which represents an increase in the reaction time of an individual animal of greater than three S.D. of the control mean reaction time for all animals used in the group (see F. E. d'Amour et al., J. Pharmacol. Exp. Ther., 1941, 72, 7479; and J. J. Rady et al., J. Pharmacol Exp. Ther., 2000, 224, 93-101). Non-responding animals will be removed from the heat stimulus when reaction times exceed 3 seconds to avoid damage to their tails. At least 50 animals will be used to determine each peak time and ED50 dose-response curve. The ED50 and its 95% confidence interval are estimated using computer programs for both of these statistical procedures.

Where [5] appears, read: ED50 with nor-BNI / control ED50.
[6] abbreviates: agonist i.t. with antagonist BNTX 25 pmol/mouse i.t.
Where [7] appears, read: agonist i.t. with antagonist CTOP 5.9 pmol/mouse i.t.
Where [8] appears, read: agonist i.t. with antagonist NTB 50 pmol/mouse i.t.
Where [9] appears, read: agonist i.t. with antagonist nor-BNI 2.5 nmol/mouse i.t.
Setting [10] is: intrathecal (i.t.) administration.

For `C[C@@H](NC(=O)[C@@H](N)Cc1ccc(O)cc1)C(=O)NCC(=O)N(C)[C@@H](Cc1ccccc1)C(=O)NCCO` [DAMGO, [D-Ala^2,N-Me-Phe^4,Gly-ol^5]enkephalin], the “Potency Ratio (95% C.I.)” value is on record as 1.50 (0.94-2.83) in test [1] (ED50 with BNTX / control ED50), 9.89 (5.91-15.34) in test [1] (ED50 with CTOP / control ED50), 1.20 (0.61-3.26) in test [1] (ED50 with NTB / control ED50) and 26.26 (16.30-46.90) in test [1] (setting [5]). The “norBNI antagonism of antinociception with co-administered dynorphin-A antiserum (DAS)” value in test [1] is reported as “little if any antagonism”. Further, the “ED50 (95% C.I.)” value in test [1] (setting [6]) is 0.017 (0.012-0.027) nmol/mouse; in test [1] (setting [7]), 0.112 (0.070-0.157) nmol/mouse; in test [1] (setting [8]) it was 0.014 (0.008-0.027) nmol/mouse; in test [1] (setting [9]) it was 0.283 (0.202-0.417) nmol/mouse. Also, the “antagonism of antinociception by CTOP (μ antagonist), in words” value in test [1] (i.t., mice) is recorded as “antagonized”. Also, in test [1] (i.t., mice), the “antagonism of antinociception by nor-BNI (κ antagonist), in words” value is reported as “antagonized”.
For [D-Pen^2,5]enkephalin [DPDPE], the “Potency Ratio (95% C.I.)” value in test [1] (ED50 with BNTX / control ED50) was 10.61 (6.08-18.51); in test [1] (ED50 with CTOP / control ED50), 1.43 (1.06-1.93); in test [1] (ED50 with NTB / control ED50), 0.98 (0.71-1.41); in test [1] (setting [5]), 12.44 (9.91-15.83). Also, the “norBNI antagonism of antinociception with co-administered dynorphin-A antiserum (DAS)” value in test [1] is on record as “failed to substantially reduce the potent norBNI antagonism”. Moreover, the “ED50 (95% C.I.)” value in test [1] (setting [6]) is recorded as 41.10 (26.44-60.95) nmol/mouse; in test [1] (setting [7]) it was 5.11 (4.04-6.37)) nmol/mouse; in test [1] (setting [8]), 3.44 (2.69-4.45) nmol/mouse; in test [1] (setting [9]), 43.30 (36.40-51.59) nmol/mouse. For the same compound, in test [1] (i.t., mice), the “antagonism of antinociception by BNTX, in words” value is “antagonized”. Further, in test [1] (i.t., mice), the “antagonism of antinociception by nor-BNI (κ antagonist), in words” value is given as “antagonized”.
In the case of `NC(N)=Nc1ccc2c3c([nH]c2c1)[C@@H]1Oc2c(O)ccc4c2[C@@]12CCN(CC1CC1)C(C4)[C@]2(O)C3` [compound 7, 6′-Guanidino-17-(cyclopropylmethyl)-6,7-didehydro-4,5α-epoxy-3,14-hydroxyindolo-[2′,3′:6,7]morphinian], the “antagonism of agonist effect by delta antagonist naltrindole (NTI)” value in test [2] is given as “non-competetively antagonized”. The “agonist or antagonist activity in MVD” value in test [3] was “inactive as an agonist or as an antagonist”. Moreover, the analgesia in test [4] (icv, concentration 20-fold that of the i.t. dose) is reported as 20%. Besides, in test [4] (setting [10]), the ED50 analgesia came to 0.45 nmol/mouse and the “antagonism of i.t. analgesia by norBNI” value is “could be antagonized by norBNI”. In test [4] (intraventricular (icv), 10-fold higher concentration than i.t.), the analgesic effect result is reported as “no analgesic effect”.

These data come from patent US20050004039A1, “Selective analgesic agents” (Regents of the University of Minnesota, priority 2002, published 2005).
